# In patent US20180169030A1, “DRUG CARRIER AND METHOD OF FABRICATING THE SAME” (priority 2016, published 2018):
# Test system: Hepatoma cells
# Settings: 75 ppm boron-10
# Protocol: The drug carrier prepared in the above embodiments applied to the boron neutron capture therapy for cells was tested. The test method is described in detail below. Referring to FIG. 8, Tsing Hua Open-pool Reactor (THOR) 200 was used. An acrylic plate 204 was used as a carrier of 96-well plate 210. Hepatoma cells 206 were placed in the 96-well plate. Thermal neutrons 208 were used to irradiate the 96-well plate 210. An acrylic cube 202 was placed behind the carrier to slow down the thermal neutrons 208, so as to shorten the irradiation time.
# Group I represents culture medium. Group J represents a boric acid solution containing 75 ppm of boron-10. Group K represents the drug carrier covering boric acid containing 75 ppm of boron-10. Group L represents the drug carrier without covering boric acid. The vertical axis is cell number percentage (%). The thermal neutron irradiation time was 27.67 minutes. After the thermal neutron irradiation, changes in cell numbers of each group were tested using the cell toxicity analysis kit (Wst-1 assay) after 24 hours.
substance,measurement,setting,value
boric acid,part of mortality rate caused by toxicity of boric acid / by drug carrier (not by irradiation),,40%
same,part of mortality rate caused by irradiation of thermal neutron,irradiation time 27.67 minutes,15%
same,mortality rate after irradiation of thermal neutron,"irradiation time 27.67 minutes, Wst-1 after 24 hours",55%
